In assay [1] the target is Anti-cotinine antibody (SEQ ID NO: 11 / SEQ ID NO: 12, rabbit variable region with human IgG1 Fc domain). Description: Binding of anti-cotinine antibody to ARM compounds by SPR, Biacore T200, 37° C. (Example 202). The conditions noted are these: pH 7.4, rabbit variable region/human IgG1 Fc antibody captured on protein A. The method, then:
Anti-cotinine antibodies having a heavy chain sequence of SEQ ID NO: 11 and a light chain sequence of SEQ ID NO: 12 (rabbit variable region with human IgG1 Fc domain containing a DE mutation (S239D/1332E)) were captured on one or more flow cells of a protein A sensor chip (Cytiva) using a Biacore T200 while reserving flow cell 1 as a reference. Following capture, a 3000 second wait step was included to reduce drift during compound analysis. ARM compounds of Formula (I) were then injected at 100 μL/min with 200 and 2000 second association and dissociation times. The entire experiment was run at 37° C. with running buffer containing 10 mM HEPES pH 7.4, 150 mM NaCl, 0.005% P20 and 1% DMSO. ARM compounds of Formula (I) were titrated with a top concentration of 200 nM using a 3-fold 5-point dilution series and a corresponding 5-injection buffer cycle was run for blank subtraction. Data were double referenced by subtracting the response of the reference flow cell from that of the antibody-containing flow cell and subsequently subtracting the referenced blank sensorgrams. Following compound analysis, the surface was regenerated using a 30 second injection of pH 1.5 glycine at a flow rate of 30 μL/min after which antibody was re-captured. The experiment was run using Biacore T200 control software and evaluated using Biacore T200 Evaluation software. Curves were fit with a 1:1 kinetic binding model to obtain kon(1/Ms), koff(1/s), Kd (M) determined as koff/kon, and residence time determined as 1/koff. (s).
Anti-cotinine antibody was tested for binding to ARMs compounds of Formula (I) of the invention in the above assay in or more experimental runs and the results are shown in Table 5 below. Affinity is reported as a pKd value. The pKd value is the negative log of the Kd value, wherein the Kd value is the dissociation constant measured in molar (M) as noted above. For compounds tested in more than one experimental run, the pKd value is reported as an average.
In general terms: Surface plasmon resonance follows binding to a sensor surface in real time, without labels.

Assay [2] deals with T1, CHOK1 cells engineered to overexpress human CCR2 (Homo sapiens, UniProt P41597).
T1 construct: expressed in transfected cells; host or cells: CHOK1 cells
Description: Antibody dependent cellular cytotoxicity (ADCC) reporter assay (Example 199). Type of assay: cell-based. The conditions noted are these: with anti-cotinine antibody SEQ ID NO: 11/12; CHOK1-human CCR2 target cells, Jurkat FcγRIIIa NFAT-luciferase reporter cells; 12-18 hours; read-out: ADCC Reporter Assay pEC50 (converted). The essentials:
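Potency is reported as pEC50 from a nonlinear fit, averaged over runs, using luciferase signal divided by that of compound-free wells. The readout comes from NFAT-luciferase Jurkat cells expressing FcγRIIIa, mixed for 12–18 h with human CCR2-overexpressing CHOK1 cells, 1 pM–10 μM ARM compound and 0.01–200 μg/mL Fc-enhanced anti-cotinine IgG1.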

These results are taken from patent publication US20250136722A1, “CYTOTOXICITY TARGETING CHIMERAS” (GLAXOSMITHKLINE INTELLECTUAL PROPERTY DEVELOPMENT LIMITED, priority 2021, published 2025).

Structures are written as SMILES. Values joined by “and” are separate entries in the source; they are usually repeats but may differ in a detail not shown here. Equal values may be shown once.

For `CC(C)N(C)[C@@H]1CC[C@H](N2CC[C@H](Nc3ncnc4ccc(C(F)(F)F)cc34)C2=O)[C@H](NC(=O)CCCC(=O)NCCCOCCCNC(=O)CCCNC(=O)[C@H]2CC(=O)N(C)[C@@H]2c2cccnc2)C1` [Example 173, N^1-((1R,2S,5R)-5-(Isopropyl(methyl)amino)-2-((S)-2-oxo-3-((6-(trifluoromethyl)quinazolin-4-yl)amino)pyrrolidin-1-yl)cyclohexyl)-N5-(3-(3-(4-((2S,3S)-1-methyl-5-oxo-2-(pyridin-3-yl)pyrrolidine-3-carboxamido)butanamido)propoxy)propyl)glutaramide], the “pKd of Antibody for ARM Compound of Formula (I)” value (“pKd of Antibody” below) in assay [1] stood at 9.1415. The EC50 in assay [2] is 0.794 nM.
The corresponding values for `CC(C)N(C)[C@@H]1CC[C@H](N2CC[C@H](Nc3ncnc4ccc(C(F)(F)F)cc34)C2=O)[C@H](NC(=O)CCCC(=O)N[C@H]2CC[C@H](CNC(=O)CCOCCNC(=O)[C@H]3CC(=O)N(C)[C@@H]3c3cccnc3)CC2)C1` [compound 180] are 9.249 and 0.456 nM.
As to `CC(C)N(C)[C@@H]1CC[C@H](N2CC[C@H](Nc3ncnc4ccc(C(F)(F)F)cc34)C2=O)[C@H](NC(=O)[C@H]2CC[C@@H](NC(=O)CCOCCNC(=O)COCCCNC(=O)[C@H]3CC(=O)N(C)[C@@H]3c3cccnc3)CC2)C1` [Example 175, (2S,3S)-N-(3-(2-((2-(3-(((1 S,4s)-4-(((1R,2S,5R)-5-(Isopropyl(methyl)amino)-2-((S)-2-oxo-3-((6-(trifluoromethyl)quinazolin-4-yl)amino)pyrrolidin-1-yl)cyclohexyl)carbamoyl)cyclohexyl)amino)-3-oxopropoxy)ethyl)amino)-2-oxoethoxy)propyl)-1-methyl-5-oxo-2-(pyridin-3-yl)pyrrolidine-3-carboxamide], the “pKd of Antibody” value in assay [1] is listed as 9.244. In assay [2], the EC50 is 0.794 nM and 0.398 nM.
Turning to `CC(C)N(C)[C@@H]1CC[C@H](N2CC[C@H](Nc3ncnc4ccc(C(F)(F)F)cc34)C2=O)[C@H](NC(=O)[C@H]2CC[C@@H](NC(=O)CCCO[C@H]3CC[C@@H](OCCNC(=O)[C@H]4CC(=O)N(C)[C@@H]4c4cccnc4)CC3)CC2)C1` [Example 3], the “pKd of Antibody” value in assay [1] amounted to 9.2795. In addition, the EC50 in assay [2] is 0.155 nM and 0.283 nM.
Consider `CC(C)N(C)[C@@H]1CC[C@H](N2CC[C@H](Nc3ncnc4ccc(C(F)(F)F)cc34)C2=O)[C@H](NC(=O)[C@H]2CC[C@@H](NC(=O)COCCNC(=O)CCOCCNC(=O)[C@H]3CC(=O)N(C)[C@@H]3c3cccnc3)CC2)C1` [compound 152], for which, in assay [1], the “pKd of Antibody” value amounted to 9.111. The EC50 in assay [2] was 1.4 nM.
Taken in the same sequence, the figures for `CN1C(=O)C[C@H](C(=O)NCCOCCOCCOCCC(=O)N[C@H]2CC[C@H](C(=O)N[C@@H]3C[C@H](NC(C)(C)C)CC[C@@H]3N3CC[C@H](Nc4ncnc5ccc(C(F)(F)F)cc45)C3=O)CC2)[C@H]1c1cccnc1` [Example 31] were 9.3015 and 7.94 nM.
For the compound `CC(C)N(C)[C@@H]1CC[C@H](N2CC[C@H](Nc3ncnc4ccc(C(F)(F)F)cc34)C2=O)[C@H](NC(=O)CCCNc2c(NCCOCCOCCOCCOCCNC(=O)[C@H]3CC(=O)N(C)[C@@H]3c3cccnc3)c(=O)c2=O)C1` [Example 164, (2S,3S)-N-(14-((2-((4-(((1R,2S,5R)-5-(Isopropyl(methyl)amino)-2-((S)-2-oxo-3-((6-(trifluoromethyl)quinazolin-4-yl)amino)pyrrolidin-1-yl)cyclohexyl)amino)-4-oxobutyl)amino)-3,4-dioxocyclobut-1-en-1-yl)amino)-3,6,9,12-tetraoxatetradecyl)-1-methyl-5-oxo-2-(pyridin-3-yl)pyrrolidine-3-carboxamide], in assay [1], the “pKd of Antibody” value came to 9.3225. Further, the EC50 in assay [2] is 1.35 nM.
Take `CC(C)N(C)[C@@H]1CC[C@H](N2CC[C@H](Nc3ncnc4ccc(C(F)(F)F)cc34)C2=O)[C@H](NC(=O)COCCNC(=O)CNC(=O)CCOCCOCCNC(=O)[C@H]2CC(=O)N(C)[C@@H]2c2cccnc2)C1` [Example 80]: the “pKd of Antibody” value in assay [1] was determined as 9.109. The EC50 in assay [2] is 1.58 nM.
As for `CC(C)N(C)[C@@H]1CC[C@H](N2CC[C@H](Nc3ncnc4ccc(C(F)(F)F)cc34)C2=O)[C@H](NC(=O)CCOCCNC(=O)CCCO[C@H]2CC[C@@H](OCCNC(=O)[C@H]3CC(=O)N(C)[C@@H]3c3cccnc3)CC2)C1` [Example 6], the “pKd of Antibody” value in assay [1] came to 9.282. In addition, the EC50 in assay [2] is 0.378 nM.
As for `CC(C)N(C)[C@@H]1CC[C@H](N2CC[C@H](Nc3ncnc4ccc(C(F)(F)F)cc34)C2=O)[C@H](NC(=O)COCCNC(=O)CCNC(=O)COCCOCCNC(=O)[C@H]2CC(=O)N(C)[C@@H]2c2cccnc2)C1` [Example 79], in assay [1], the “pKd of Antibody” value was 9.126. In assay [2], the EC50 was 5.2 nM.
For the compound `CC(C)N(C)[C@@H]1CC[C@H](N2CC[C@H](Nc3ncnc4ccc(C(F)(F)F)cc34)C2=O)[C@H](NC(=O)[C@H]2CC[C@@H](NC(=O)CCOCCNC(=O)COCCNC(=O)[C@H]3CC(=O)N(C)[C@@H]3c3cccnc3)CC2)C1` [Example 98, (2S,3S)-N-(2-(2-((2-(3-(((1S,4s)-4-(((1R,2S,5R)-5-(Isopropyl(methyl)amino)-2-((S)-2-oxo-3-((6-(trifluoromethyl)quinazolin-4-yl)amino)pyrrolidin-1-yl)cyclohexyl)carbamoyl)cyclohexyl)amino)-3-oxopropoxy)ethyl)amino)-2-oxoethoxy)ethyl)-1-methyl-5-oxo-2-(pyridin-3-yl)pyrrolidine-3-carboxamide], the “pKd of Antibody” value in assay [1] was found to be 9.0095. Besides, in assay [2], the EC50 was 1 nM and 0.631 nM.
On to `CC(C)N(C)[C@@H]1CC[C@H](N2CC[C@H](Nc3ncnc4ccc(C(F)(F)F)cc34)C2=O)[C@H](NC(=O)CCOCCNC(=O)CCOCCNC(=O)CCOCCNC(=O)[C@H]2CC(=O)N(C)[C@@H]2c2cccnc2)C1` [Example 46], for which the “pKd of Antibody” value in assay [1] stood at 9.074. Further, the EC50 in assay [2] is 0.501 nM.
For `CC(C)N(C)[C@@H]1CC[C@H](N2CC[C@H](Nc3ncnc4ccc(C(F)(F)F)cc34)C2=O)[C@H](NC(=O)COCCNC(=O)COCCOCCNC(=O)CCNC(=O)[C@H]2CC(=O)N(C)[C@@H]2c2cccnc2)C1` [Example 143, (2S,3S)-N-(1-(((1R,2S,5R)-5-(Isopropyl(methyl)amino)-2-((S)-2-oxo-3-((6-(trifluoromethyl)quinazolin-4-yl)amino)pyrrolidin-1-yl)cyclohexyl)amino)-1,7,16-trioxo-3,9,12-trioxa-6,15-diazaoctadecan-18-yl)-1-methyl-5-oxo-2-(pyridin-3-yl)pyrrolidine-3-carboxamide], the “pKd of Antibody” value in assay [1] is on record as 9.275. The EC50 in assay [2] was 3.24 nM.
The corresponding values for `CC(C)N(C)[C@@H]1CC[C@H](N2CC[C@H](Nc3ncnc4ccc(C(F)(F)F)cc34)C2=O)[C@H](NC(=O)CCOCCOCCNC(=O)NCCOCCOCCNC(=O)[C@H]2CC(=O)N(C)[C@@H]2c2cccnc2)C1` [Example 119, (2S,3S)-N-(20-(((1R,2S,5R)-5-(Isopropyl(methyl)amino)-2-((S)-2-oxo-3-((6-(trifluoromethyl)quinazolin-4-yl)amino)pyrrolidin-1-yl)cyclohexyl)amino)-10,20-dioxo-3,6,14,17-tetraoxa-9,11-diazaicosyl)-1-methyl-5-oxo-2-(pyridin-3-yl)pyrrolidine-3-carboxamide] are 9.1735 and 1.58 nM.
The corresponding values for `CC(C)N(C)[C@@H]1CC[C@H](N2CC[C@H](Nc3ncnc4ccc(C(F)(F)F)cc34)C2=O)[C@H](NC(=O)CCCC(=O)N[C@H]2CC[C@@H](CNC(=O)CCOCCNC(=O)[C@H]3CC(=O)N(C)[C@@H]3c3cccnc3)CC2)C1` [Example 179, N^1-((1R,2S,5R)-5-(isopropyl(methyl)amino)-2-((S)-2-oxo-3-((6-(trifluoromethyl)quinazolin-4-yl)amino)pyrrolidin-1-yl)cyclohexyl)-N^5-((1R,4S)-4-((3-(2-((2S,3S)-1-methyl-5-oxo-2-(pyridin-3-yl)pyrrolidine-3-carboxamido)ethoxy)propanamido)methyl)cyclohexyl)glutaramide] are 9.24 and 0.724 nM.
